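Briefly, cells in 96-well plates were exposed to five compound concentrations for 48 h, and endpoints were estimated by linear interpolation. The concentration for 50% growth inhibition is given as GI50. TGI: total growth inhibition.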
What was measured:
Experiment in all cases: NCI anticancer screen, dose series, 48 h
SK-OV-3 ovarian = tested on: SK-OV-3 ovarian
SNB-75 CNS = tested on: SNB-75 CNS
LOX IMVI melanoma = tested on: LOX IMVI melanoma
IGROV1 ovarian = tested on: IGROV1 ovarian
A498 renal = tested on: A498 renal
NCI-H522 lung = tested on: NCI-H522 lung
CCRF-CEM leukemia = tested on: CCRF-CEM leukemia
CAKI-1 renal = tested on: CAKI-1 renal
SR leukemia = tested on: SR leukemia
HCC-2998 colon = tested on: HCC-2998 colon

SMILES	TGI (SK-OV-3 ovarian)	TGI (SNB-75 CNS)	TGI (LOX IMVI melanoma)	TGI (IGROV1 ovarian)	TGI (A498 renal)	TGI (NCI-H522 lung)	TGI (CCRF-CEM leukemia)	TGI (CAKI-1 renal)	TGI (SR leukemia)	GI50 (LOX IMVI melanoma)	GI50 (IGROV1 ovarian)	GI50 (NCI-H522 lung)	GI50 (CCRF-CEM leukemia)	GI50 (CAKI-1 renal)	GI50 (HCC-2998 colon)	TGI (HCC-2998 colon)	GI50 (SR leukemia)	GI50 (SNB-75 CNS)	GI50 (A498 renal)	GI50 (SK-OV-3 ovarian)
N#C/C(=C1\SC(N=Nc2ccccc2)C(=O)N1c1ccccc1)c1nc2ccccc2[nH]1 (stereo not given)	> 100 µM	> 100 µM	> 100 µM	> 100 µM	> 100 µM	> 100 µM	> 100 µM	> 100 µM												
O=c1c2cccc3cccc(c4n1CCN=4)c32	> 100 µM	> 100 µM	80.5 µM	> 100 µM	> 100 µM	> 100 µM	> 100 µM	> 100 µM	81.5 µM											
COc1ccc(OC)c(-c2cc(-c3ccc(Cl)cc3)nn2-c2ccc(S(=O)(=O)NC(C)=O)cc2)c1			3.65 µM	> 100 µM		> 100 µM	73.5 µM	> 100 µM		1.79 µM	37.2 µM	32.4 µM	20 µM	37.6 µM	1.71 µM	6.93 µM				
O=S1Nc2c(Cl)cc(Cl)c3c(Cl)cc(Cl)c(c23)N1	> 100 µM	55.3 µM	> 100 µM	> 100 µM	74.4 µM	89.8 µM	> 100 µM	95.2 µM								99.8 µM				
COC(=O)C1[C@H](c2cc(OC)c(OC)c(OC)c2)OC(=O)C1(C(=O)OC)C(=O)c1ccc2c(c1)OCO2 (stereo not given in full)	> 100 µM	> 100 µM	> 100 µM	> 100 µM	> 100 µM	> 100 µM	> 100 µM	> 100 µM								> 100 µM				
CC1(CCC(=O)OC2CCCCC2)OCCO1	> 100 µM	> 100 µM	> 100 µM	> 100 µM	> 100 µM	> 100 µM	> 100 µM	> 100 µM	> 100 µM											
FC(F)(F)C1(Br)C(c2ccccc2)=C1c1ccccc1	> 100 µM	88.6 µM	28 µM	74.3 µM			30.2 µM	54.7 µM	78.5 µM							38.4 µM				
CCc1cccc(CC)c1NC(=O)C1=C(C)NC(C)=C(C(=O)Nc2c(CC)cccc2CC)C1c1ccc([N+](=O)[O-])cc1	96.4 µM	> 100 µM	> 100 µM	52.4 µM	64 µM	40.2 µM	45.8 µM	> 100 µM								> 100 µM				
Cc1cc(N(CCC#N)S(C)(=O)=O)ccc1C=Nc1ccc(C(=O)NN2C(=O)/C(=C/c3ccc(N(CCC#N)CCC#N)cc3C)N=C2c2cc([N+](=O)[O-])ccc2Cl)cc1	> 100 µM	> 100 µM	> 100 µM	> 100 µM	> 100 µM	> 100 µM	> 100 µM	> 100 µM								> 100 µM				
COc1cccc(/C=C/C(=O)c2ccc(Cl)cc2Cl)c1		36.7 µM	> 50 µM	> 50 µM	21 µM	> 50 µM		29.6 µM	> 50 µM	15.3 µM	15 µM	18 µM		13.1 µM			0.833 µM	13.9 µM	11.9 µM	
SCCSCCCSCCS	> 100 µM	> 100 µM	> 100 µM	> 100 µM		> 100 µM	41.5 µM		32.7 µM							> 100 µM				
CCOC(=O)C(C)(C)Oc1ccc(/C=C/C(=O)c2ccc(Cl)cc2)cc1		32.6 µM	30.7 µM	35.1 µM	52.8 µM		61.9 µM		> 100 µM											
CCOc1cccc2ccc[n+](CC)c12	> 100 µM	> 100 µM	> 100 µM	> 100 µM		> 100 µM	> 100 µM									> 100 µM				
C/C=C/CC(C)[C@@H](O)[C@H](NC)C(=O)O (stereo not given in full)	> 100 µM	> 100 µM	> 100 µM	> 100 µM		> 100 µM	> 100 µM	> 100 µM								> 100 µM				
CC(=O)[CH-]C(=O)c1ccccc1.CC(=O)[CH-]C(=O)c1ccccc1.CCOCC[O-].CCOCC[O-].[Ti+4]	74.9 µM	43.8 µM	> 100 µM	> 100 µM	47.9 µM	36.5 µM		57.8 µM		37.8 µM	31.9 µM	17 µM		19.2 µM	18.4 µM	43.5 µM		16.6 µM	22.9 µM	25.2 µM
CC(C)(C)C(=O)OC12/C(=N/O)CCCCCC1c1ccccc12 (stereo not given)	33.6 µM	27.8 µM	28.8 µM	29.6 µM	30.5 µM	35 µM	64 µM	24.6 µM								> 100 µM				

SMILES	TGI (SK-OV-3 ovarian)	TGI (SNB-75 CNS)	TGI (LOX IMVI melanoma)	TGI (IGROV1 ovarian)	TGI (A498 renal)	TGI (NCI-H522 lung)	TGI (CCRF-CEM leukemia)	TGI (CAKI-1 renal)	TGI (SR leukemia)	GI50 (LOX IMVI melanoma)	GI50 (IGROV1 ovarian)	GI50 (NCI-H522 lung)	GI50 (CCRF-CEM leukemia)	GI50 (CAKI-1 renal)	GI50 (HCC-2998 colon)	TGI (HCC-2998 colon)	GI50 (SR leukemia)	GI50 (SNB-75 CNS)	GI50 (A498 renal)	GI50 (SK-OV-3 ovarian)
N#CC1=C(N)NC(N2CCOCC2)=NC12Nc1ccccc1N2	> 100 µM	> 100 µM	62.5 µM	23.8 µM		59.3 µM	> 100 µM	37.8 µM	> 100 µM	23.5 µM	2.15 µM	23.5 µM	> 100 µM	10.8 µM			28.8 µM	> 100 µM		58.1 µM
Cc1c(C(=O)/C=C/c2ccc(N(C)C)cc2)c(=O)n(-c2ccccc2)n1C	> 100 µM		> 100 µM	> 100 µM	> 100 µM	> 100 µM	> 100 µM	> 100 µM								> 100 µM				
CCn1c(-c2cc3ccccc3cc2O)nn(C(=O)c2c(Cl)cccc2Cl)c1=S	40 µM	> 50 µM	> 50 µM	16.6 µM		> 50 µM	> 50 µM	> 50 µM	> 50 µM	> 50 µM	6.63 µM	21.6 µM	27.1 µM	21.4 µM			17.6 µM	42.5 µM		15.4 µM
O=C1C(Cl)C(c2ccccc2O)N1n1cnc2ccccc2c1=O (stereo not given)	> 100 µM	49.6 µM	> 100 µM	> 100 µM		93.8 µM	> 100 µM	> 100 µM	> 100 µM							> 100 µM				
CN(C)C=C1C(Cl)=C(C=O)CC(C=O)=C1Cl	79.7 µM	29.5 µM	6.07 µM	33 µM		4.14 µM	10.6 µM	31.2 µM								28.7 µM				
N#CCN/C=C\C(=O)c1ccc(Cl)cc1	> 100 µM		> 100 µM	> 100 µM	> 100 µM	> 100 µM	> 100 µM	> 100 µM	44.1 µM	31.5 µM	31 µM	> 100 µM	0.398 µM	30.1 µM			11.5 µM		38.6 µM	34.7 µM
CC(C)(C)C1CCC2c3c([nH]c4ccccc34)C3C(=O)N(c4ccccc4)C(=O)C3C2C1 (stereo not given)	5.18 µM	6.04 µM	15.3 µM	39.4 µM	5.99 µM		11 µM									53.5 µM				
C=C[C@@]1(O)CCCC2=C(C(=O)OCC)CC[C@]21C	> 100 µM			> 100 µM		> 100 µM	> 100 µM		> 100 µM							> 100 µM				
O=Cc1ccc(-c2ccc(-c3nc4ccccc4o3)cc2)o1	> 100 µM	> 100 µM	60.2 µM	> 100 µM	> 100 µM	59.3 µM	> 100 µM	65.9 µM		23 µM	38.6 µM	24.4 µM	> 100 µM	22.6 µM	28.6 µM	76.4 µM		81.9 µM	21.2 µM	41.9 µM
Cc1cc(Cl)ccc1NC(=O)C(=O)C(C(=O)c1ccc2ccccc2c1)C1OC(=O)c2ccccc21 (stereo not given)	49.1 µM	49.2 µM	32.2 µM	> 100 µM	25.6 µM	23.4 µM	22.2 µM	35.5 µM								22.2 µM				
CCCN(CCCC(NC(C)=O)C(=O)NCc1ccccc1)C(=O)NCCCl (stereo not given)		> 100 µM		> 100 µM		> 100 µM	> 100 µM	> 100 µM	> 100 µM							> 100 µM				
COC(=O)Cc1ccc(Oc2cnc3cc(F)c(F)cc3n2)cc1	> 100 µM	> 100 µM	> 100 µM	> 100 µM		> 100 µM	> 100 µM	> 100 µM		> 100 µM	> 100 µM	> 100 µM	44.2 µM	> 100 µM				> 100 µM		> 100 µM
COC(C(=O)NCCCCNC(=O)C(OC)c1ccccc1)c1ccccc1 (stereo not given)	> 100 µM	> 100 µM	> 100 µM	> 100 µM	> 100 µM	> 100 µM	> 100 µM	> 100 µM	> 100 µM											
Cc1cn2c(/C=N/N=C(N)N)c(-c3cccs3)nc2s1	37.6 µM			27.1 µM		47.9 µM	3.24 µM	27.5 µM	3.99 µM		10.5 µM	16.9 µM	1.34 µM	13.7 µM	1.77 µM	3.24 µM	2 µM			17.5 µM
CN(Cc1cc(Cl)cc(Cl)c1)CC(C(=O)c1ccccc1)c1ccccc1 (stereo not given)	> 100 µM	31.3 µM	5.91 µM	> 58.3 µM	64.8 µM	4.39 µM		9.07 µM	> 100 µM											

From PubChem BioAssay (NCI)
